Laboratory results published in patent publication US20230271966A1, “PRPK INHIBITORS” (Dana-Farber Cancer Institute, Inc., priority 2020, published 2023).

Experiments:
[1] = target: PRPK (Homo sapiens (Human), UniProt Q96S44); assay: Isothermal titration calorimetry (ITC), PRPK; type: binding; settings: for Kd: 20 μM protein titrated with 200 μM test compound, 20 mM HEPES pH 7.5, 150 mM NaCl, 0.5 mM TCEP, 2% DMSO, 25° C, single site model; for PRPK binding Kd compared with pomalidomide: ITC, comparison in words with control Pomalidomide
Chain of PRPK (Q96S44 whole entry): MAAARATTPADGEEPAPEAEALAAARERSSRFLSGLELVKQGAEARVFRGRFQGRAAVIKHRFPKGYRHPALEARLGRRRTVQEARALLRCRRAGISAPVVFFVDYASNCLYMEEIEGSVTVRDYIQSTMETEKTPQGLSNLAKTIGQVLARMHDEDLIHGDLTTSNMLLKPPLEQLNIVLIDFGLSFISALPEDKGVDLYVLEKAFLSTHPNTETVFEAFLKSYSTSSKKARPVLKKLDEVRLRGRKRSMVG
Description: (§1) All calorimetric experiments were carried out using an Affinity ITC from TA Instruments (New Castle, Del.) equipped with an auto sampler in a buffer containing 20 mM HEPES, pH 7.5, 150 mM NaCl, 0.5 mM TCEP, and 2% DMSO at 25° C. 20 μM protein solution containing PRPK or Cereblon (CRBN) in the calorimetric cell was titrated with 200 μM of a test compound solution using 2 μL injection in 200 seconds intervals using a stirring speed at 125 rpm. Resulting isotherm was fitted with a single site model to yield thermodynamic parameters of ΔH, ΔS, stoichiometry, and Kd using NanoAnalyze software (TA instruments).

[2] = target: Cereblon (CRBN) (Homo sapiens (Human), UniProt Q96SW2); assay: Isothermal titration calorimetry (ITC), Cereblon (CRBN); type: binding; settings: for Kd: 20 μM protein titrated with 200 μM test compound, 20 mM HEPES pH 7.5, 150 mM NaCl, 0.5 mM TCEP, 2% DMSO, 25° C, single site model
Chain of Cereblon (CRBN) (Q96SW2 whole entry, species assumed): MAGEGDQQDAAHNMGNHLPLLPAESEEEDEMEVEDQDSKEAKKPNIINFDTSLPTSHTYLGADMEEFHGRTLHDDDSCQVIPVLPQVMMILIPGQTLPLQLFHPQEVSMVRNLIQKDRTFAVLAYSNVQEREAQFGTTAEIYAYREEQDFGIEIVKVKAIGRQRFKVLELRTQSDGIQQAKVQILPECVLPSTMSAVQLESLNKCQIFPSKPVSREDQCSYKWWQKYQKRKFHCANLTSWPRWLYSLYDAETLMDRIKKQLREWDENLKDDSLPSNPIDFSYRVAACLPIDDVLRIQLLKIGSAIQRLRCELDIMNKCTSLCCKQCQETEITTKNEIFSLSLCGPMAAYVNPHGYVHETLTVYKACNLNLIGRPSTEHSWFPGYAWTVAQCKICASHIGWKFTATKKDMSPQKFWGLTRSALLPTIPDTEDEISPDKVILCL
Description: as §1

| SMILES | Kd [1] [µM] | PRPK binding Kd compared with pomalidomide [1] | Kd [2] [µM] | CRBN inhibition (conclusion in words from ITC) [2] |
| --- | --- | --- | --- | --- |
| C[C@@]1(N2C(=O)c3ccc(C(=O)O)cc3C2=O)CCC(=O)NC1=O [Compound 12, (R)-2-(3-methyl-2,6-dioxopiperidin-3-yl)-1,3-dioxoisoindoline-5-carboxylic acid] | 0.28 ± 0.08 | lower than Pomalidomide | > 1000 | not CRBN inhibitors |
| O=C1CCC(N2C(=O)c3ccc(-c4cn[nH]c4)c(O)c3C2=O)C(=O)N1 (centres unmarked) [Compound 13, 2-(2,6-dioxopiperidin-3-yl)-4-hydroxy-5-(1H-pyrazol-4-yl)isoindoline-1,3-dione] | 1.9 ± 1.7 | lower than Pomalidomide | 0.54 | not CRBN inhibitors |
| C[C@@]1(N2C(=O)c3ccc(-c4cn[nH]c4)c(O)c3C2=O)CCC(=O)NC1=O [Compound 22, (R)-4-hydroxy-2-(3-methyl-2,6-dioxopiperidin-3-yl)-5-(1H-pyrazol-4-yl)isoindoline-1,3-dione] | > 1000 | – | > 1000 | – |
| C[C@@]1(N2C(=O)c3ccc(-c4n[nH]c(=S)o4)cc3C2=O)CCC(=O)NC1=O [Compound 30, (R)-2-(3-methyl-2,6-dioxopiperidin-3-yl)-5-(5-thioxo-4,5-dihydro-1,3,4-oxadiazol-2-yl)isoindoline-1,3-dione] | 0.36 ± 0.07 | lower than Pomalidomide | > 1000 | not CRBN inhibitors |
